How the values were obtained:
Assay in all cases: radiometric filter-binding kinase assay
[1] = molecular target: AURKB (human) (UniProt Q96GD4)
[2] = molecular target: BRSK2 (human) (UniProt Q8IWQ3)
[3] = molecular target: CAMKK2 (human) (UniProt Q96RR4)
[4] = molecular target: CHEK1 (human) (UniProt O14757)
[5] = molecular target: CLK2 (human) (UniProt P49760)
[6] = molecular target: CSNK2A1 (human) (UniProt P68400)
[7] = molecular target: CaMK1 (human) (UniProt Q14012)
[8] = molecular target: DAPK1 (human) (UniProt P53355)
[9] = molecular target: DYRK1A (human) (UniProt Q13627)
[10] = molecular target: DYRK3 (human) (UniProt O43781)
[11] = molecular target: EPHB2 (human) (UniProt P29323)
[12] = molecular target: FGFR1 (human) (UniProt P11362)
[13] = molecular target: GCK (human) (UniProt Q12851)
Sequence of GCK (human) (Q12851 whole entry, looked up): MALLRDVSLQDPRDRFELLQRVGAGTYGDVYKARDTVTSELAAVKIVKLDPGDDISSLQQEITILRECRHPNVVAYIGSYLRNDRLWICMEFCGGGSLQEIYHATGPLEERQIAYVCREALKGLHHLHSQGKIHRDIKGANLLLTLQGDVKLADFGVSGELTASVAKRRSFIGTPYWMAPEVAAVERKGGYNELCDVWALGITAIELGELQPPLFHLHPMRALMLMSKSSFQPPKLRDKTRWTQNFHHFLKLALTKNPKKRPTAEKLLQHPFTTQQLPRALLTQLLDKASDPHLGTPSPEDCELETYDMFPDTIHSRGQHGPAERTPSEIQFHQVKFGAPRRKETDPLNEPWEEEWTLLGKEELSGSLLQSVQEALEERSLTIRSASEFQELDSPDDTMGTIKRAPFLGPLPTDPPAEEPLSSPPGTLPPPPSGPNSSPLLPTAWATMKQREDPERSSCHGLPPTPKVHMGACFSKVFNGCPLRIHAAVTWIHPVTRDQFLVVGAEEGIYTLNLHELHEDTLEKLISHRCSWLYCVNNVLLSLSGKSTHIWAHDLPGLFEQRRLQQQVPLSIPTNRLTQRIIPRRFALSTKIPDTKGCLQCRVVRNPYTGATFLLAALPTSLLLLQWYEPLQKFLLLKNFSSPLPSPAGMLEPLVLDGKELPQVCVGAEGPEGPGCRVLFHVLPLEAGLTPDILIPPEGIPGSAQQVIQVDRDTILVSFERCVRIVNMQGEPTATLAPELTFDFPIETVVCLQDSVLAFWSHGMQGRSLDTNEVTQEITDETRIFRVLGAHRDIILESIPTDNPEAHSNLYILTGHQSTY

[14] = molecular target: HIPK1 (human) (UniProt Q86Z02)
Sequence of HIPK1 (human) (Q86Z02 whole entry, looked up): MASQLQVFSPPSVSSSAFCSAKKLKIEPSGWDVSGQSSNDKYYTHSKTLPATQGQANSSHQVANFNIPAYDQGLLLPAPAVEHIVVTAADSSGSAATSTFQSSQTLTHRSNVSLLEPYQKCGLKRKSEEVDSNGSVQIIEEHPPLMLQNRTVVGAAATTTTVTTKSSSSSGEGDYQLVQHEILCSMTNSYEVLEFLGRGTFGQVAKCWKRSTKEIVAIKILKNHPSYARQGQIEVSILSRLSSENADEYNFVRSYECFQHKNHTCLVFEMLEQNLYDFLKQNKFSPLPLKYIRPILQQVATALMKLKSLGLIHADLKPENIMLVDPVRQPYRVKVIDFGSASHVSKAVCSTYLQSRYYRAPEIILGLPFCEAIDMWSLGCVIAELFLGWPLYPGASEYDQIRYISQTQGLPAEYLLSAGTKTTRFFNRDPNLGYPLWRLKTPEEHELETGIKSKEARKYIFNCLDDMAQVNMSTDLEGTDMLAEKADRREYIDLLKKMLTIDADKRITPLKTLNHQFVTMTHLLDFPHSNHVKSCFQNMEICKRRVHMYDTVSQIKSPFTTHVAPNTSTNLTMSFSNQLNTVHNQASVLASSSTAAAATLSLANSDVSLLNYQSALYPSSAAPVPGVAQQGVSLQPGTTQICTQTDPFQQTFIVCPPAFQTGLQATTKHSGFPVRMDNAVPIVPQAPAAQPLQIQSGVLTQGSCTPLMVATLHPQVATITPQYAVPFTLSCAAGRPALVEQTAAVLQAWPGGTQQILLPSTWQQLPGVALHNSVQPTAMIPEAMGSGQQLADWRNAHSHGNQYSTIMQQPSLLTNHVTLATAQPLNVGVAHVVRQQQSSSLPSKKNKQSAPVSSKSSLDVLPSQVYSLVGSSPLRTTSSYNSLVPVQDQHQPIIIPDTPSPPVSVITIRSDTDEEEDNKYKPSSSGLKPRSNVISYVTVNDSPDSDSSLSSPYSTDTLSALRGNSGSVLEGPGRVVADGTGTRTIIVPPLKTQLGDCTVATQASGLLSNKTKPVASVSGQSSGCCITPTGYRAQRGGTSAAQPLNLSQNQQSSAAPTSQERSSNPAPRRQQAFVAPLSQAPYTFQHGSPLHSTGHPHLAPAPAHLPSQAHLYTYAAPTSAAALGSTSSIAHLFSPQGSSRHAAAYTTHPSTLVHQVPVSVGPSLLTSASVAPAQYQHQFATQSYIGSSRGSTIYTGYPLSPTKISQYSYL

[15] = molecular target: HIPK2 (human) (UniProt Q9H2X6)
[16] = molecular target: IGF1R (human) (UniProt P08069)
[17] = molecular target: JAK2 JH1 JH2 (human) (UniProt O60674)
[18] = test system: LCK (mouse); conditions: compound 1.0 µM; accession and sequence are those of the human protein
[19] = molecular target: MAPK10 (human) (UniProt P53779)
[20] = molecular target: MAPK11 (human) (UniProt Q15759)
[21] = molecular target: MAPK13 (human) (UniProt O15264)
[22] = molecular target: MAPK8 (human) (UniProt P45983)
[23] = molecular target: MAPKAPK5 (human) (UniProt Q8IW41)
[24] = molecular target: MARK3 (human) (UniProt P27448)
[25] = molecular target: MINK1 (human) (UniProt Q8N4C8)
[26] = molecular target: MKNK1 (human) (UniProt Q9BUB5)
[27] = test system: PAK2 (human), Q13177 [T402E]
Sequence of PAK2 (human), Q13177 [T402E] (Q13177 whole entry T402E, looked up): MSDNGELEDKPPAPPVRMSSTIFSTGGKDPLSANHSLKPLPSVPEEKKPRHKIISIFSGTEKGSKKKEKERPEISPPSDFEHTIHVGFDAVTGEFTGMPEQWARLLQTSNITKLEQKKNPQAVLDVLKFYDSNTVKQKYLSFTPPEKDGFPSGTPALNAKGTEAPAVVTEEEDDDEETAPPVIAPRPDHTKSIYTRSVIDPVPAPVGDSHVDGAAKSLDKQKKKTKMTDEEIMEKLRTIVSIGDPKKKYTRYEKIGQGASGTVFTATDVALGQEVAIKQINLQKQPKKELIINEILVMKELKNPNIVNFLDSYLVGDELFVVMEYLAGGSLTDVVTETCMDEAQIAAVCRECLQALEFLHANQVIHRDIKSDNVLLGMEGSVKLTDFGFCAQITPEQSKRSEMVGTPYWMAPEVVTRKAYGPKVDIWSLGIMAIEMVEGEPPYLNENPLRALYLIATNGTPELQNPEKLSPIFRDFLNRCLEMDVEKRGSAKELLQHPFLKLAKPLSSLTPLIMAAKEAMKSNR

[28] = molecular target: PHKG1 (human) (UniProt Q16816)
[29] = molecular target: PIM3 (human) (UniProt Q86V86)
[30] = test system: ROCK2 (rat); conditions: accession and sequence are those of the human protein
[31] = test system: SGK1 (human), O00141 [S422D]
Sequence of SGK1 (human), O00141 [S422D] (O00141 whole entry S422D, looked up): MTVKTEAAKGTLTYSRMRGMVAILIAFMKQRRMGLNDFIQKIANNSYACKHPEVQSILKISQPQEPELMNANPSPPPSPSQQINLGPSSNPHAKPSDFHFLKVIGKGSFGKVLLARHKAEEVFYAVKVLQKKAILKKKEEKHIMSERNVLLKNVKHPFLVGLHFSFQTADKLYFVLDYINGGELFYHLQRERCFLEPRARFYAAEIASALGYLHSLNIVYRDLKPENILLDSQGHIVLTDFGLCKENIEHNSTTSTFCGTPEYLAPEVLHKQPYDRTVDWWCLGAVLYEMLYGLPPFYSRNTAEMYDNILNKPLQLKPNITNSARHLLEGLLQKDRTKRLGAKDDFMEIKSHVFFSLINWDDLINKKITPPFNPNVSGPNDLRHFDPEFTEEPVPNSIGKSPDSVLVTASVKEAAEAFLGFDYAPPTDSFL

[32] = molecular target: SRPK1 (human) (UniProt Q96SB4)
Sequence of SRPK1 (human) (Q96SB4 whole entry, looked up): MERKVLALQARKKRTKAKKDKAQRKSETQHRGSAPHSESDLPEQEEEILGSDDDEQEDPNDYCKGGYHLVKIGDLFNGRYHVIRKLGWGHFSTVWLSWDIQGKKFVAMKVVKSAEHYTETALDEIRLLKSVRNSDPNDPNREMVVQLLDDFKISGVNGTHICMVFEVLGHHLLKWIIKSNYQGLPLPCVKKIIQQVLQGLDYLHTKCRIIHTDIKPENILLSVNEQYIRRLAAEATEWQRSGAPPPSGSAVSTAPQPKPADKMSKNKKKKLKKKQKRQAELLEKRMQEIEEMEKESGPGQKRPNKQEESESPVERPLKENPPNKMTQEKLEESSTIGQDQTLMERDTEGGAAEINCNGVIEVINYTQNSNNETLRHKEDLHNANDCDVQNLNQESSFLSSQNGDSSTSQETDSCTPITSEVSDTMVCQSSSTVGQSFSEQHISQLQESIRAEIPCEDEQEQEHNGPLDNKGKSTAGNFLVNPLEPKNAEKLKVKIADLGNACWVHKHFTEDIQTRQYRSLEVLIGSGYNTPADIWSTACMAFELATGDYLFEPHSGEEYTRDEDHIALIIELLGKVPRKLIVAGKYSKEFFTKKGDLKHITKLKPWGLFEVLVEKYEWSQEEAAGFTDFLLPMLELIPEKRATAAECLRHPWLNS

[33] = molecular target: STK3 (human) (UniProt Q13188)
[34] = molecular target: TAOK1 (human) (UniProt Q7L7X3)
[35] = molecular target: TBK1 (human) (UniProt Q9UHD2)
[36] = molecular target: YES1 (human) (UniProt P07947)

Sequence of BRSK2 (human) (Q8IWQ3 whole entry, looked up): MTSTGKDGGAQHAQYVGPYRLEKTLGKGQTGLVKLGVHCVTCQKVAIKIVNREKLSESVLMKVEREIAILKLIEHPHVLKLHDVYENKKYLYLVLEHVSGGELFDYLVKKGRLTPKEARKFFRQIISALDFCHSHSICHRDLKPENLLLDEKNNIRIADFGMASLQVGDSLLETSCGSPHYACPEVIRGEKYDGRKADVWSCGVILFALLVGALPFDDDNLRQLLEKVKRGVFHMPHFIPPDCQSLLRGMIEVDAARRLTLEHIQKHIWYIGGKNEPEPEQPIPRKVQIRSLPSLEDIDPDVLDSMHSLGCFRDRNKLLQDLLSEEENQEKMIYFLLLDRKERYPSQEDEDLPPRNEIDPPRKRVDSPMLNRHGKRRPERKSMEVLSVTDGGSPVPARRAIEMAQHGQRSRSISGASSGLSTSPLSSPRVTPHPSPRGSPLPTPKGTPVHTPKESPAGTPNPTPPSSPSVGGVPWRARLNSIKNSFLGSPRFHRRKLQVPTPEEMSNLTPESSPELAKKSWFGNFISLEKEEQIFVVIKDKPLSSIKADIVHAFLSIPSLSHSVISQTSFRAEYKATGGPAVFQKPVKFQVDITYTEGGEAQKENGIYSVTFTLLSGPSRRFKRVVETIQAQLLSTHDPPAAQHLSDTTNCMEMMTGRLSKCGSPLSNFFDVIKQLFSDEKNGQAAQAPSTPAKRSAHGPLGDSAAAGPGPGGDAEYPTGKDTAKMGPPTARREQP
Sequence of AURKB (human) (Q96GD4 whole entry, looked up): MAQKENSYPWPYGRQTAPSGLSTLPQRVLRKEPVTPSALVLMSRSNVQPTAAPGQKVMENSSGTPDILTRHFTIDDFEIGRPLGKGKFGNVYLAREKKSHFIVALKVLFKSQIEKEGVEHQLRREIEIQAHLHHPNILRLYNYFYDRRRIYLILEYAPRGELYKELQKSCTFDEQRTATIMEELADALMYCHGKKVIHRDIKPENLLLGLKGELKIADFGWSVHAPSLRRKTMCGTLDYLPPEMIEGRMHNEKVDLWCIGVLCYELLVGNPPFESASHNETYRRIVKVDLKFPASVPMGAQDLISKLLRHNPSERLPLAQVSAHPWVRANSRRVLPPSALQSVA

Cc1ccc(-c2ccc3c(ccc4sc5c(c43)NC[C@@H](C)NC5=O)n2)cn1
residual activity ([1]; compound 0.1 µM): 109%
residual activity ([1]; compound 1.0 µM): 99%
residual activity ([1]; compound 10.0 µM): 64%
residual activity ([2]; compound 0.1 µM): 77%
residual activity ([2]; compound 1.0 µM): 32%
residual activity ([2]; compound 10.0 µM): 8%
residual activity ([3]; compound 0.1 µM): 107%
residual activity ([3]; compound 10.0 µM): 28%
residual activity ([4]; compound 1.0 µM): 109%
residual activity ([4]; compound 10.0 µM): 112%
residual activity ([5]; compound 0.1 µM): 86%
residual activity ([5]; compound 1.0 µM): 43%
residual activity ([5]; compound 10.0 µM): 9%
residual activity ([6]; compound 0.1 µM): 100%
residual activity ([6]; compound 1.0 µM): 97%
residual activity ([6]; compound 10.0 µM): 93%
residual activity ([7]; compound 0.1 µM): 96%
residual activity ([7]; compound 1.0 µM): 97%
residual activity ([7]; compound 10.0 µM): 68%
residual activity ([8]; compound 0.1 µM): 103%
residual activity ([8]; compound 1.0 µM): 62%
residual activity ([8]; compound 10.0 µM): 15%
residual activity ([9]; compound 0.1 µM): 80%
residual activity ([9]; compound 1.0 µM): 31%
residual activity ([9]; compound 10.0 µM): 8%
residual activity ([10]; compound 0.1 µM): 111%
residual activity ([10]; compound 10.0 µM): 40%
residual activity ([11]; compound 0.1 µM): 99%
residual activity ([11]; compound 1.0 µM): 110%
residual activity ([11]; compound 10.0 µM): 111%
residual activity ([12]; compound 0.1 µM): 95%
residual activity ([12]; compound 1.0 µM): 91%
residual activity ([12]; compound 10.0 µM): 68%
residual activity ([13]; compound 0.1 µM): 109%
residual activity ([13]; compound 1.0 µM): 89%
residual activity ([13]; compound 10.0 µM): 19%
residual activity ([14]; compound 0.1 µM): 111%
residual activity ([14]; compound 1.0 µM): 104%
residual activity ([14]; compound 10.0 µM): 130%
residual activity ([15]; compound 1.0 µM): 113%
residual activity ([15]; compound 10.0 µM): 78%
residual activity ([16]; compound 0.1 µM): 101%
residual activity ([16]; compound 1.0 µM): 108%
residual activity ([16]; compound 10.0 µM): 114%
residual activity ([17]; compound 0.1 µM): 101%
residual activity ([17]; compound 1.0 µM): 102%
residual activity ([17]; compound 10.0 µM): 79%
residual activity [18]: 95%
residual activity ([19]; compound 0.1 µM): 120%
residual activity ([19]; compound 1.0 µM): 104%
residual activity ([19]; compound 10.0 µM): 102%
residual activity ([20]; compound 0.1 µM): 118%
residual activity ([20]; compound 1.0 µM): 126%
residual activity ([20]; compound 10.0 µM): 117%
residual activity ([21]; compound 0.1 µM): 108%
residual activity ([21]; compound 1.0 µM): 103%
residual activity ([21]; compound 10.0 µM): 94%
residual activity ([22]; compound 0.1 µM): 96%
residual activity ([22]; compound 1.0 µM): 93%
residual activity ([22]; compound 10.0 µM): 92%
residual activity ([23]; compound 1.0 µM): 67%
residual activity ([23]; compound 10.0 µM): 24%
residual activity ([24]; compound 0.1 µM): 113%
residual activity ([24]; compound 1.0 µM): 115%
residual activity ([25]; compound 1.0 µM): 97%
residual activity ([25]; compound 10.0 µM): 40%
residual activity ([26]; compound 0.1 µM): 105%
residual activity ([26]; compound 1.0 µM): 103%
residual activity ([26]; compound 10.0 µM): 83%
residual activity ([27]; compound 0.1 µM): 102%
residual activity ([27]; compound 1.0 µM): 103%
residual activity ([27]; compound 10.0 µM): 93%
residual activity ([28]; compound 0.1 µM): 110%
residual activity ([28]; compound 1.0 µM): 91%
residual activity ([28]; compound 10.0 µM): 86%
residual activity ([29]; compound 0.1 µM): 55%
residual activity ([29]; compound 1.0 µM): 18%
residual activity ([29]; compound 10.0 µM): 3%
residual activity ([30]; compound 0.1 µM): 112%
residual activity ([30]; compound 1.0 µM): 96%
residual activity ([30]; compound 10.0 µM): 95%
residual activity ([31]; compound 0.1 µM): 116%
residual activity ([31]; compound 1.0 µM): 112%
residual activity ([31]; compound 10.0 µM): 112%
residual activity ([32]; compound 0.1 µM): 89%
residual activity ([32]; compound 1.0 µM): 63%
residual activity ([32]; compound 10.0 µM): 19%
residual activity ([33]; compound 0.1 µM): 131%
residual activity ([33]; compound 10.0 µM): 100%
residual activity ([34]; compound 0.1 µM): 109%
residual activity ([34]; compound 1.0 µM): 98%
residual activity ([34]; compound 10.0 µM): 70%
residual activity ([35]; compound 0.1 µM): 110%
residual activity ([35]; compound 1.0 µM): 87%
residual activity ([35]; compound 10.0 µM): 96%
residual activity ([36]; compound 0.1 µM): 112%
residual activity ([36]; compound 1.0 µM): 89%
residual activity ([36]; compound 10.0 µM): 55%
